According to patent EP1228063B1, “SUBSTITUTED PYRIDINES AND PYRIDAZINES WITH ANGIOGENESIS INHIBITING ACTIVITY” (BAYER CORPORATION, priority 1999, dated 2001):

What was measured:
[1] = test system: SK-MEL2 human tumor cells that were transfected with a plasmid containing the murine VEGF gene; test: Matrigel Angiogenesis Model (hemoglobin content of Matrigel pellets); assay type: in vivo, Mice; details: vs. vehicle control animals, 12 days post-implantation
Procedure: Preparation of Matrigel Plugs and in vivo Phase: Matrigel® (Collaborative Biomedical Products, Bedford, MA) is a basement membrane extract from a murine tumor composed primarily of laminin, collagen IV and heparan sulfate proteoglycan. It is provided as a sterile liquid at 4° C, but rapidly forms a solid gel at 37° C.
Liquid Matrigel at 4° C was mixed with SK-MEL2 human tumor cells that were transfected with a plasmid containing the murine VEGF gene with a selectable marker. Tumor cells were grown in vitro under selection and cells were mixed with cold liquid Matrigel at a ratio of 2 X 10^6 per 0.5 ml. […]
Optical densities were determined spectrophotometrically at 600 nm in a 96-well plate reader, SpectraMax 250 Microplate Spectrophotometer System (Molecular Devices, Sunnyvale, CA). Background Lysis Buffer readings were subtracted from all wells.
Total sample hemoglobin content was calculated according to the following equation: Total Hemoglobin = (Sample Lysate Volume) × (Hemoglobin Concentration) [formula]
The average Total Hemoglobin of Matrigel samples without cells was subtracted from each Total Hemoglobin Matrigel sample with cells. Percent inhibition was calculated according to the following equation: % Inhibition = ((Average Total Hemoglobin Drug-Treated Tumor Lysates) × 100)/((Average Total Hemoglobin Non-Treated Tumor Lysates)) [formula] […]

[2] = molecular target: T1, NIH3T3 cells expressing the full length KDR receptor (Homo sapiens, UniProt P35968); test: Cell mechanistic assay - Inhibition of 3T3 KDR phosphorylation; assay type: cell-based; details: VEGF (30 ng / ml) stimulated KDR phosphorylation in NIH3T3 cells, 30 minutes preincubation
T1 construct: NIH3T3 cells expressing the full length KDR receptor; expressed in transfected cells; host or cells: NIH3T3 cells (G418 selection)
T1 sequence (P35968 20-1356): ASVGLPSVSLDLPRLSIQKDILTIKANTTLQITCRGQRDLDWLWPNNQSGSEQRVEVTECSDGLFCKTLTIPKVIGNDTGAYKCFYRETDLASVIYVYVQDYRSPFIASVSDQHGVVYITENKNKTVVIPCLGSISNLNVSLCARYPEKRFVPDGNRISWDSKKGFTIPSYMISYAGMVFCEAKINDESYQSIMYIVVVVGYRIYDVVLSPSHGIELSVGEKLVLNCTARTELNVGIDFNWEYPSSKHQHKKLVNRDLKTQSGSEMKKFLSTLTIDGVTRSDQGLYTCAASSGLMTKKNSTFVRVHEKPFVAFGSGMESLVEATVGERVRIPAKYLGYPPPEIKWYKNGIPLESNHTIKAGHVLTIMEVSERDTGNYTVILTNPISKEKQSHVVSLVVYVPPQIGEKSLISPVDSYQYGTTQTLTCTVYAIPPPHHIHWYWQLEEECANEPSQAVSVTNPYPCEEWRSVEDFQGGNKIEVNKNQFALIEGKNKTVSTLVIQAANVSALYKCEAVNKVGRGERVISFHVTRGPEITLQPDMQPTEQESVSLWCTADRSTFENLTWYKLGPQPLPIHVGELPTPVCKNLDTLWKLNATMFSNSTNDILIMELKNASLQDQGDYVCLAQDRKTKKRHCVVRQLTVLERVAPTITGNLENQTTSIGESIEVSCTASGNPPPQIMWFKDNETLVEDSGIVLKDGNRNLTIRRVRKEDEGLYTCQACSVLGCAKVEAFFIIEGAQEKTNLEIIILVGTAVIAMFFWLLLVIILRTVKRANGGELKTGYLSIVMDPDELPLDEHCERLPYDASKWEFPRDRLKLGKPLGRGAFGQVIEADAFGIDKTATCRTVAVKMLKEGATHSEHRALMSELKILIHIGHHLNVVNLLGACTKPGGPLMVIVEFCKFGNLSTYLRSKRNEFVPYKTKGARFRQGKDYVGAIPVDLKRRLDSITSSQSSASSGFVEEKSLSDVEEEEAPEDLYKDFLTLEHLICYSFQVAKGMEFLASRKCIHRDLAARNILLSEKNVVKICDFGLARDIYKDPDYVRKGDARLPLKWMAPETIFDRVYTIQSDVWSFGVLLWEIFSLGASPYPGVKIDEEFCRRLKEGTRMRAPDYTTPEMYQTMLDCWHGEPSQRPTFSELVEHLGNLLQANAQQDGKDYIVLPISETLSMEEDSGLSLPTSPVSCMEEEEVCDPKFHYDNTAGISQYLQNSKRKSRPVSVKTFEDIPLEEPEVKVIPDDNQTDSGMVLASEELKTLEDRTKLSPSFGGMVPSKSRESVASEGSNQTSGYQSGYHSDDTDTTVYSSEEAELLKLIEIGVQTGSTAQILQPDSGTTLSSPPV
Procedure: NIH3T3 cells expressing the full length KDR receptor were grown in DMEM (Life Technologies, Inc., Grand Island, NY) supplemented with 10% newborn calf serum, low glucose, 25 mM /L sodium pyruvate, pyridoxine hydrochloride and 0.2 mg/ ml of G418 (Life Technologies Inc., Grand Island, NY). The cells were maintained in collagen I-coated T75 flasks (Becton Dickinson Labware, Bedford, MA) in a humidified 5% CO2 atmosphere at 37°C.
Fifteen thousand cells were plated into each well of a collagen 1-coated 96-well plate in the DMEM growth medium. Six hours later, the cells were washed and the medium was replaced with DMEM without serum. After overnight culture to quiesce the cells, the medium was replaced by Dulbecco's phosphate-buffered saline (Life Technologies Inc., Grand Island, NY) with 0.1 % bovine albumin (Sigma Chemical Co., St Louis, MO). After adding various concentrations (0-300 nM) of test compounds to the cells in 1% final concentration of DMSO, the cells were incubated at room temperature for 30 minutes. The cells were then treated with VEGF (30 ng / ml) for 10 minutes at room temperature. Following VEGF stimulation, the buffer was removed and the cells were lysed by addition of 150 µl of extraction buffer (50 mM Tris, pH 7.8, supplemented with 10% glycerol, 50 mM BGP, 2 mM EDTA, 10 mM NaF, 0.5 mM NaVO4, and 0.3% TX-100) at 4°C for 30 minutes.
To assess receptor phosphorylation, 100 microliters of each cell lysate was added to the wells of an ELISA plate precoated with 300 ng of antibody C20 (Santa Cruz Biotechnology, Inc., Santa Cruz , CA). Following a 60-minute incubation, the plate was washed and bound KDR was probed for phosphotyrosine using an anti-phosphotyrosine mAb clone 4G10 (Upstate Biotechnology, Lake Placid, NY). The plate was washed and wells were incubated with anti-mouse IgG/HRP conjugate (Amersham International plc, Buckinghamshire, England) for 60 minutes. Wells were washed and phosphotyrosine was quantitated by addition of 100 µl per well of 3,3',5,5' tetramethylbenzidine (Kirkegaard and Perry, TMB Microwell 1 Component peroxidase substrate) solution. Color development was arrested by the addition of 100 µl 1% HCl based stop solution (Kirkegaard and Perry, TMB 1 Component Stop Solution).
Optical densities (OD) were determined spectrophotometrically at 450 nm in a 96-well plate reader (SpectraMax 250, Molecular Devices). Background (no VEGF added) OD values were subtracted from all ODs and percent inhibition was calculated according to the equation: % Inhibition = ((OD(VEGF control)-OD(with test compound)) × 100)/(OD(VEGF control)-OD(no VEGF added)) [formula]
IC50s were determined on some of the exemplary materials with a least squares analysis program using compound concentration versus percent inhibition. Compounds that have IC50 ≤ 20 nM in this assay include those of Examples 2, 6, 10, 11, 14, 23, 96, 101, 102, 103, 104, 105. Compounds that have IC50 values between 20 nM and 50 nM include those of examples 1, 4, 8, 9, 12, 13, 17, 24, 93, 98. Compounds that have IC50 values between 50 nM and 400 nM include those of examples 97, 99, and 100.

Clc1ccc(Nc2nnc(OCc3ccncc3)c3sccc23)cc1 [Example 8, 4-(4-chlorophenylamino)-7-(4-pyridylmethoxy)thieno-[2,3-d]pyridazine]
inhibition of total hemoglobin content of the Matrigel samples ([1]; 100 mg/kg po sid): > 60%
inhibition of total hemoglobin content of the Matrigel samples ([1]; 300 mg/kg po sid): > 60%
IC50 [2]: 20 to 50 nM
